In publication doi:10.1101/2025.08.06.668955, “High-Affinity, Structure-Validated and Selective Macrocyclic Peptide Tools for Chemical Biology Studies of Huntingtin” (bioRxiv, 2025):
Where a SMILES comes first, the peptide text is derived from it. Bridges are numbered along the chain shown (N, C = ends).

Assays:
HTTQ54 = target: T1, HTTQ54 (Homo sapiens, UniProt P42858, INS38QQQQQQQQQQQQQQQQQQQQQQQQQQQQQQQQQ); assay: Thermal shift assay (DSF), HTTQ54; format: binding; conditions: SYPRO Orange, 0.25 mg/mL protein, macrocycle up to 10 μM, 2.5% DMSO, n=3
T1 construct: FLAG; made in house; host or cells: Sf9 insect cells (baculovirus)
Method: (§1) In an Axygen® 384-well PCR microplate (REF# PCR-384-LC480-W-NF, Corning), samples were mixed to yield a final concentration of 0.25 mg/mL Q54 or Q23/HAP40, a 5-pt 2-fold serial dilution of each macrocycle (top concentration of 10 μM, 2.5% DMSO), and 5X SYPRO™ Orange (CAT# S6650, Thermo Fisher Scientific) in buffer (20 mM HEPES pH 7.4, 150 mM NaCl, 1 mM TCEP, 0.005% Tween-20). Differential Scanning Fluorimetry (DSF) was performed using a LightCycler® 480 (Roche LifeSciences) set to a 4 °C/min temperature ramp (20–95 °C) and fluorescence detection at 580 nm. Melting temperatures (Tm) were obtained from the minima of the negative derivative of each curve. The propagated error of the thermal shift (ΔTm) was calculated from the standard deviation of each Tm mean (n=3). To ensure a maximally macrocycle-bound fraction (KD ~10 nM; ~100% bound) at 0.25 mg/mL HTT or HTT-HAP40 (~0.7 μM), the upper limit of macrocycle tested was 10 μM.
(§2) 98 Supplementary Figure. 10. Thermal shift (ΔTm) induced by macrocycle binding. Melting
(§3) 99 temperature of HTTQ54 (left) with HL5 or HL2 minus HTTQ54 with DMSO (46.5 °C), and (right)
(§4) 100 HTTQ23-HAP40 with HD4, HL2, HL5, HHD2, HHD3, or HHL1 minus HTTQ23-HAP40 with DMSO
(§5) 101 (51.0 °C). ΔTm significance was determined using an unpaired t-test with Welch correction,
(§6) 102 comparing to the mean Tm of Q54 or Q23-HAP40 with DMSO; *P < 0.05, **P < 0.01, ***P <
103 0.001. […]

HTTQ23-HAP40 = target: T2, HTTQ23-HAP40 (Homo sapiens, UniProt P23610+P42858, INS38QQ); assay: Thermal shift assay (DSF), HTTQ23-HAP40; format: binding; conditions: SYPRO Orange, 0.25 mg/mL protein, macrocycle up to 10 μM, 2.5% DMSO, n=3
T2 construct: Full-length wildtype HTT with a polyQ tract of 23 glutamines; FLAG; made in house; host or cells: Sf9 insect cells (baculovirus)
Method: as §1, §2, §3, §4, §5, §6
103 0.001. The summary table reports the ΔTm and exact P value at the highest concentration tested
(1 picture or pasted object on this page, not shown here)

HTT = assay: HL2 macrocycle pulldown from isogenic neuronal progenitor cells (NPCs), LC-MS/MS; format: binding, human; conditions: isogenic NPC lines Q30/Q19, Q45/Q19 and Q81/Q27
Description: We extended our analysis to isogenic neuronal progenitor cells (NPCs), which more closely resemble the neuronal populations affected in HD, both functionally and in terms of gene expression profiles ([Ooi et al., 2019]). […] Thus, we compared HL2 protein enrichment profiles across isogenic NPC lines harboring non-expanded (Q30/Q19) and expanded CAG repeats (Q45/Q19 and Q81/Q27).
Successful macrocycle-mediated pulldown was first confirmed by western blot in all NPC lines (Supplementary Figure 14a). […] HTT and HAP40 were the only proteins consistently overlapping across all three NPC lines (Supplementary Figure 14b). […]
Cells were harvested by centrifugation at 1,500 rpm for 5 minutes, washed twice with PBS, and snap-frozen. […] Protein concentration was determined by BCA assay (Thermo Fisher Scientific, 23225), yielding approximately 4 mg of protein on average. […]
All sample preparation, LC MS/MS data collection, and MS data searches were carried out at the SPARC BioCentre at The Hospital for Sick Children (Toronto, ON, Canada). […] Samples were analyzed by liquid chromatography tandem mass spectrometry (LC-MS/MS) using an EASY-nanoLC 1200 system with a 1 h analysis and an Orbitrap Fusion™ Lumos™ Tribrid™ Mass Spectrometer (Thermo Fisher Scientific). […]

T2 sequence (P42858 with tags, fused parts or gaps INS38QQ): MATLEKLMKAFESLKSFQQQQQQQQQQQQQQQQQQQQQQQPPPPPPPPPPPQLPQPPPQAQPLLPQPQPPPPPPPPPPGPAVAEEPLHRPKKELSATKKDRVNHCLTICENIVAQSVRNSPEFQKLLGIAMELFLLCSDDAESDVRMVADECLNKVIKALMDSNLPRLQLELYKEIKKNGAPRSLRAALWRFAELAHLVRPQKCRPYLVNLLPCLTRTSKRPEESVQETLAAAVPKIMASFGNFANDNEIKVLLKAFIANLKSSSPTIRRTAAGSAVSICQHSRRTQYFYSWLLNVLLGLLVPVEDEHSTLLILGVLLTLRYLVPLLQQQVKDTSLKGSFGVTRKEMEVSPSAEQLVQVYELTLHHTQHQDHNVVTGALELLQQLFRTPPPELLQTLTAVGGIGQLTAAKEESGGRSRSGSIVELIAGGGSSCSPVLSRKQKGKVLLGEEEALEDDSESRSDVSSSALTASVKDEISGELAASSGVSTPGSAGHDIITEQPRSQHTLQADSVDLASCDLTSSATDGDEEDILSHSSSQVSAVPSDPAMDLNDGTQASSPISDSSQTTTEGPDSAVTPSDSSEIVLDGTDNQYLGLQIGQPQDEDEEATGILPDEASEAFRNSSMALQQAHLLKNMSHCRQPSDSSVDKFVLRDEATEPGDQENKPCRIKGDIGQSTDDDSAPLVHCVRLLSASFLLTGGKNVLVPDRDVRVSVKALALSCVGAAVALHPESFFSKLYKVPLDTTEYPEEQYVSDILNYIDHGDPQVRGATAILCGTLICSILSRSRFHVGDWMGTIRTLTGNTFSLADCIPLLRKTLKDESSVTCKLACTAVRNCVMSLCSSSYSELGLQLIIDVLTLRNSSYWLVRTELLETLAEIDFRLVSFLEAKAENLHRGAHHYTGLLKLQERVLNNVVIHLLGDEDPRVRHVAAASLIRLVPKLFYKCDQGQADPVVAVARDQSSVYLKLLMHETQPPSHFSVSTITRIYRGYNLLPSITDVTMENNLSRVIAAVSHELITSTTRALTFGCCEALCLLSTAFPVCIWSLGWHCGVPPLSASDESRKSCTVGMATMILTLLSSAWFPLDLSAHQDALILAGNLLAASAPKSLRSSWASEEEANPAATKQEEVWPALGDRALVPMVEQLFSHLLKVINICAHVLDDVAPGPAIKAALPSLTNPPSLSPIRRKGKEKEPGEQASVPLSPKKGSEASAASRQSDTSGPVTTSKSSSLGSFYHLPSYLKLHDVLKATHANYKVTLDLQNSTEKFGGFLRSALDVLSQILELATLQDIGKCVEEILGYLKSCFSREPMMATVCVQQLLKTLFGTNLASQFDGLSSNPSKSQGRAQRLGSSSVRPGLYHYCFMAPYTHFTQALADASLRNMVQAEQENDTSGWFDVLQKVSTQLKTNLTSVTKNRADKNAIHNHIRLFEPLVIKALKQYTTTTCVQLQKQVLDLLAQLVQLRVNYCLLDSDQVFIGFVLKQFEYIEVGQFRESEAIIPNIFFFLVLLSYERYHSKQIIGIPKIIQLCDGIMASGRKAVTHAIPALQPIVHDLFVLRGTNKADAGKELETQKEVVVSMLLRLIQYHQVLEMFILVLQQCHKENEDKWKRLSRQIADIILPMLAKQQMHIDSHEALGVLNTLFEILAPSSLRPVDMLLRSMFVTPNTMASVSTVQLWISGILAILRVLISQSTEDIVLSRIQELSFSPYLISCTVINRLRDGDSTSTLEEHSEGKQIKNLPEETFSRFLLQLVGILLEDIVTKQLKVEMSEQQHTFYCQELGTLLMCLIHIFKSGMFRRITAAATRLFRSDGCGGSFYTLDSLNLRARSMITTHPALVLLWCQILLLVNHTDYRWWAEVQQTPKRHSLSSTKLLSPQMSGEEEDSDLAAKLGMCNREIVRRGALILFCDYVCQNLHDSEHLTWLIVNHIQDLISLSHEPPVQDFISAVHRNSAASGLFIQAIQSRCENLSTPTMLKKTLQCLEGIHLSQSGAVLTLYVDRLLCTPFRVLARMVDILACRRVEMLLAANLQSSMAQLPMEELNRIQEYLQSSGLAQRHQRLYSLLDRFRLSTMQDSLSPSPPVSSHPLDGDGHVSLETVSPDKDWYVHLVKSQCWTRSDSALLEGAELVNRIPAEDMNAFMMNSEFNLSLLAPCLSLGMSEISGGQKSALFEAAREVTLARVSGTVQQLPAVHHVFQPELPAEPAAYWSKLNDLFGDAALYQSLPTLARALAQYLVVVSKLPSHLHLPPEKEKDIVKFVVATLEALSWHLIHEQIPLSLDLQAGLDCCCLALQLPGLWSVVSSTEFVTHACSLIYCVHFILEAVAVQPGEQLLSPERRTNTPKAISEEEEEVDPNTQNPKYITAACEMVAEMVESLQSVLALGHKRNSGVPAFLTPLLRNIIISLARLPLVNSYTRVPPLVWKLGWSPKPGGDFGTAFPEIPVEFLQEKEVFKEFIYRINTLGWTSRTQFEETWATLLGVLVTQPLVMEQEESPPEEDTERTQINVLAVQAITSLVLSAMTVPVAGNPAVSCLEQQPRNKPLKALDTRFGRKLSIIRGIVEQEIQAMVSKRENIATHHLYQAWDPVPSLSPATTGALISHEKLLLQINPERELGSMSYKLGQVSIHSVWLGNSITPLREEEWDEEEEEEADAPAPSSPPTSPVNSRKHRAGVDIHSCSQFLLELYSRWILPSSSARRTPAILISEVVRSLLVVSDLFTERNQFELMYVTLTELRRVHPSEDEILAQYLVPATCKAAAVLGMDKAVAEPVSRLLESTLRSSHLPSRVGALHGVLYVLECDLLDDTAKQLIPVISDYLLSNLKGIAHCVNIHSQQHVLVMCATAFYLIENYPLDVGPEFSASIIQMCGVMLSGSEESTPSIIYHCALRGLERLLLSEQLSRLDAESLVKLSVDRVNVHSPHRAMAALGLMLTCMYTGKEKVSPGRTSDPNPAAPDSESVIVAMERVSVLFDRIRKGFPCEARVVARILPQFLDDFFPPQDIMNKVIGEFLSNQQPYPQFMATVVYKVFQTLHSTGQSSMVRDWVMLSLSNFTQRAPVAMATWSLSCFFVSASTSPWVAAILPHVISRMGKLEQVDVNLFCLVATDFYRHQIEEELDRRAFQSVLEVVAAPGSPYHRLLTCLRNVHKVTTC
T2 sequence (P23610 whole entry, stated change not applied): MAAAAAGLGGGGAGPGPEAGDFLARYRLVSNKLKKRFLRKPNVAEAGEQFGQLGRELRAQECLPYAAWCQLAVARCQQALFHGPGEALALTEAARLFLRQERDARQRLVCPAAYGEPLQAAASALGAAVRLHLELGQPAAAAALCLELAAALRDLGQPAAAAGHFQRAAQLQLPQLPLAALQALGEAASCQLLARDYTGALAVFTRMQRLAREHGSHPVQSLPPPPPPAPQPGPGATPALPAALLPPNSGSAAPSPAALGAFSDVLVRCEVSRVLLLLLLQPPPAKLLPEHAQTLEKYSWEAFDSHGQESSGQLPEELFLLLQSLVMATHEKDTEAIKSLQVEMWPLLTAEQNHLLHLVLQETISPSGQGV

Thermal shift (ΔTm) of HTTQ54 induced by macrocycle (HTTQ54): No significant thermal effects | Thermal shift (ΔTm) of HTTQ23-HAP40 induced by macrocycle (HTTQ23-HAP40): No significant thermal effects
Compound: CC(C)C[C@@H]1NC(=O)[C@H](Cc2ccc(O)cc2)NC(=O)[C@H](CCCNC(=N)N)NC(=O)[C@H](C)NC(=O)[C@H]([C@@H](C)O)NC(=O)[C@H](Cc2ccc(O)cc2)NC(=O)CSC[C@@H](C(N)=O)NC(=O)[C@H](CCCCN)NC(=O)[C@H](Cc2ccc(O)cc2)NC(=O)[C@H](Cc2c[nH]cn2)NC(=O)[C@H](CC(C)C)NC(=O)[C@H]([C@@H](C)O)NC(=O)CNC(=O)[C@H](CC(C)C)NC(=O)[C@H]([C@@H](C)O)NC1=O [HL2] ({CH2CO}-YTARYLTLGTLHYKC-NH2; thioether N-15; C-terminus assumed)
Enrichment of HTT in HL2 pulldown from NPC lines by LC-MS/MS (HTT): most abundantly enriched protein across all lines
